Here are results for 35 compounds from ChEMBL document CHEMBL5344474, “Molecular editing of NSC-666719 enabling discovery of benzodithiazinedioxide-guanidines as anticancer agents” (RSC Med Chem, 2024).

Broadly, the IC50 is the concentration that inhibits the measured activity by half. Low values mean greater potency, high ones weaker potency.

The subject of data set [1] is MCF7. Briefly: Antiproliferative activity against human MCF7 cells incubated for 72 hrs by MTT assay. The note with it: MCF7, 72 h. (In general: Tetrazolium dyes change colour on reduction, which living cells bring about.)
In data set [2] the test system is MDA-MB-231. Briefly: Antiproliferative activity against human MDA-MB-231 cells incubated for 72 hrs by MTT assay. The note with it: MDA-MB-231, 72 h.
Data set [3] can be described thus: Selectivity index, ratio of IC50 for HEK293 cells to IC50 for human MCF7 cells. Particulars: HEK293 cells versus MCF7 cells.
The nature of data set [4]: Selectivity index, ratio of IC50 for HEK293 cells to IC50 for human MDA-MB-231 cells. The note with it: HEK293 cells versus MDA-MB-231 cells.
Data set [5] in a line: Selectivity index, ratio of IC50 for HEK293 cells to IC50 for human HCT-116 cells. Particulars: HEK293 cells versus HCT-116 cells.

Turning to `COc1nc(N/C(N)=N\C2=NS(=O)(=O)c3cc(C)c(Cl)cc3S2)c2ccn(C)c2n1`, the IC50 in data set [1] came out at 2.5 µM; in data set [2], 4 µM. The selectivity ratio in data set [3], in data set [4] and in data set [5] was more than 65 throughout.
Regarding `COc1cc2nccc(Nc3n[nH]c(NS(=O)(=O)c4cc(C)c(Cl)cc4S)n3)c2cc1OC`, the IC50 in data set [1] was 8.4 µM; in data set [2], 9.2 µM. Also, the selectivity ratio in data set [3], in data set [4] and in data set [5] was more than 65 each time.
Regarding `Cc1cc(S(=O)(=O)Nc2nc(Nc3ccc4cnccc4c3)n[nH]2)c(S)cc1Cl`, the half-maximal inhibitory concentration (IC50) in data set [1] was found to be 7.6 µM; in data set [2] it was 8.2 µM. For the same compound, the selectivity ratio in data set [3], in data set [4] and in data set [5] was more than 65 in each case.
In the case of `Cc1cc2c(cc1Cl)SC(/N=C(/N)Nc1cncc3ccccc13)=NS2(=O)=O`, the values for the IC50 in data set [1] and in data set [2] were 3 µM and 5.3 µM, respectively. Moreover, the selectivity ratio in data set [3], in data set [4] and in data set [5] was more than 65 in each case.
`COc1cc2nccc(N/C(N)=N\C3=NS(=O)(=O)c4cc(C)c(Cl)cc4S3)c2cc1OC`: the IC50 in data set [1] came out at 3.5 µM; in data set [2], 6.1 µM. In addition, the selectivity ratio in data set [3], in data set [4] and in data set [5] was more than 65 in each case.
`Cc1cc2c(cc1Cl)SC(/N=C(/N)Nc1cccc3cccnc13)=NS2(=O)=O`: the results for the IC50 in data set [1] and in data set [2] were 3.6 µM and 5.6 µM, respectively. Moreover, the selectivity ratio in data set [3], in data set [4] and in data set [5] was more than 65 throughout.
`COc1cccc2c(O)ccc(N/C(N)=N\C3=NS(=O)(=O)c4cc(C)c(Cl)cc4S3)c12`: the IC50 in data set [1] is 3.2 µM; in data set [2] it was 6.3 µM. Moreover, the selectivity ratio in data set [3], in data set [4] and in data set [5] was more than 65 in each case.
Turning to `Cc1cc(S(=O)(=O)Nc2nc(Nc3cccc4cccnc34)n[nH]2)c(S)cc1Cl`, the IC50 in data set [1] turned out to be 8.2 µM; in data set [2] it was 8.8 µM. For the same compound, the selectivity ratio in data set [3], in data set [4] and in data set [5] was more than 65 in each case.
As for `COc1ccc2ccccc2c1Nc1n[nH]c(NS(=O)(=O)c2cc(C)c(Cl)cc2S)n1`, the half-maximal inhibitory concentration (IC50) in data set [1] amounted to 7.7 µM; in data set [2], 8.5 µM. Also, the selectivity ratio in data set [3], in data set [4] and in data set [5] was more than 65 each time.
For the compound `COc1ccc(Nc2n[nH]c(NS(=O)(=O)c3cc(C)c(Cl)cc3S)n2)c(OC)c1OC`, the results for the IC50 in data set [1] and in data set [2] were 6.5 µM and 7.7 µM, respectively. Further, the selectivity ratio in data set [3], in data set [4] and in data set [5] was more than 65 throughout.
On to `Cc1cc2c(cc1Cl)SC(/N=C(/N)Nc1ccc(Cl)cc1)=NS2(=O)=O`, for which the IC50 in data set [1] was found to be 5.5 µM; in data set [2], 6.6 µM. Further, the selectivity ratio in data set [3], in data set [4] and in data set [5] was more than 65 throughout.
In the case of `Cc1cc(S(=O)(=O)Nc2nc(Nc3ccc4cc(O)ccc4c3)n[nH]2)c(S)cc1Cl`, the IC50 was found to be 7.5 µM in data set [1] and 8.6 µM in data set [2]. Also, the selectivity ratio in data set [3], in data set [4] and in data set [5] was more than 65 each time.
Consider `Cc1cc(S(=O)(=O)Nc2nc(Nc3cccc4cnccc34)n[nH]2)c(S)cc1Cl`, for which the IC50 in data set [1] came out at 7.4 µM; in data set [2], 8.7 µM. The selectivity ratio in data set [3], in data set [4] and in data set [5] was more than 65 each time.
As for `Cc1cc(S(=O)(=O)Nc2nc(Nc3cccc4ccccc34)n[nH]2)c(S)cc1Cl`, the IC50 in data set [1] is 7.5 µM; in data set [2] it was 8.6 µM. The selectivity ratio in data set [3], in data set [4] and in data set [5] was more than 65 each time.
With `Cc1cc2c(cc1Cl)SC(/N=C(/N)Nc1ccc3c(ccc(=O)n3C)c1)=NS2(=O)=O`, the IC50 in data set [1] was found to be 4 µM; in data set [2] it was 5.8 µM. For the same compound, the selectivity ratio in data set [3], in data set [4] and in data set [5] was more than 65 in each case.
On to `COc1ccc2ccccc2c1N/C(N)=N\C1=NS(=O)(=O)c2cc(C)c(Cl)cc2S1`, for which the IC50 is 3 µM in data set [1] and 4.3 µM in data set [2]. The selectivity ratio in data set [3], in data set [4] and in data set [5] was more than 65 throughout.
As for `Cc1cc2c(cc1Cl)SC(/N=C(/N)Nc1cccc3ncccc13)=NS2(=O)=O`, the IC50 came to 3.6 µM in data set [1] and 5.4 µM in data set [2]. Moreover, the selectivity ratio in data set [3], in data set [4] and in data set [5] was more than 65 throughout.
In the case of `Cc1cc2c(cc1Cl)SC(/N=C(/N)Nc1ccc3cnccc3c1)=NS2(=O)=O`, the IC50 stood at 5.4 µM in data set [1] and 7.2 µM in data set [2]. In addition, the selectivity ratio in data set [3], in data set [4] and in data set [5] was more than 65 in each case.
In the case of `Cc1cc(S(=O)(=O)Nc2nc(Nc3ccc(Cl)cc3)n[nH]2)c(S)cc1Cl`, the IC50 in data set [1] came to 7.4 µM; in data set [2], 8.4 µM.
`Cc1cc(S(=O)(=O)Nc2nnc(Nc3ccccc3)[nH]2)c(S)cc1Cl`: the IC50 in data set [1] came to 6.3 µM; in data set [2], 7 µM. Also, the selectivity ratio in data set [3], in data set [4] and in data set [5] was more than 65 in each case.
On to `Cc1cc2c(cc1Cl)SC(/N=C(/N)Nc1ccc3nccnc3c1)=NS2(=O)=O`, for which the figures for the IC50 in data set [1] and in data set [2] were 2.5 µM and 4.1 µM, respectively. Moreover, the selectivity ratio in data set [3], in data set [4] and in data set [5] was more than 65 in each case.
For `COc1ccc(N/C(N)=N\C2=NS(=O)(=O)c3cc(C)c(Cl)cc3S2)cc1`, the figures for the IC50 in data set [1] and in data set [2] were 3.3 µM and 5.4 µM, respectively. The selectivity ratio in data set [3], in data set [4] and in data set [5] was more than 65 throughout.
Consider `Cc1cc2c(cc1Cl)SC(/N=C(/N)Nc1ccc3ccccc3n1)=NS2(=O)=O`, for which the IC50 came to 2.3 µM in data set [1] and 3.8 µM in data set [2]. For the same compound, the selectivity ratio in data set [3], in data set [4] and in data set [5] was more than 65 each time.
For the compound `Cc1cc(S(=O)(=O)Nc2nc(Nc3cnc4ccccc4c3)n[nH]2)c(S)cc1Cl`, the IC50 in data set [1] came to 7.8 µM; in data set [2] it was 8.6 µM. The selectivity ratio in data set [3], in data set [4] and in data set [5] was more than 65 in each case.
On to `Cc1cc2c(cc1Cl)SC(/N=C(/N)Nc1ccc3ncccc3c1)=NS2(=O)=O`, for which the half-maximal inhibitory concentration (IC50) stood at 3.8 µM in data set [1] and 5.8 µM in data set [2]. Besides, the selectivity ratio in data set [3], in data set [4] and in data set [5] was more than 65 each time.
With `Cc1cc2c(cc1Cl)SC(/N=C(/N)Nc1cnc3ccccc3c1)=NS2(=O)=O`, the figures for the IC50 in data set [1] and in data set [2] were 2.3 µM and 4.1 µM, respectively. In addition, the selectivity ratio in data set [3], in data set [4] and in data set [5] was more than 65 each time.
As to `COc1cc(N/C(N)=N\C2=NS(=O)(=O)c3cc(C)c(Cl)cc3S2)cc(OC)c1OC`, the IC50 was determined as 2.4 µM in data set [1] and 4.1 µM in data set [2]. Also, the selectivity ratio in data set [3], in data set [4] and in data set [5] was more than 65 throughout.
Regarding `Cc1cc2c(cc1Cl)SC(/N=C(/N)Nc1ccnc3ccccc13)=NS2(=O)=O`, the figures for the IC50 in data set [1] and in data set [2] were 3.1 µM and 5.7 µM, respectively. Further, the selectivity ratio in data set [3], in data set [4] and in data set [5] was more than 65 each time.
Consider `Cc1cc2c(cc1Cl)SC(/N=C(/N)Nc1ccc3ccccc3c1)=NS2(=O)=O`, for which the IC50 in data set [1] was 3.5 µM; in data set [2], 5.8 µM. Also, the selectivity ratio in data set [3], in data set [4] and in data set [5] was more than 65 throughout.
For `CC(=O)c1cn(C)c2ccc(N/C(N)=N\C3=NS(=O)(=O)c4cc(C)c(Cl)cc4S3)cc12`, the values for the IC50 in data set [1] and in data set [2] were 2.9 µM and 5.2 µM, respectively. Further, the selectivity ratio in data set [3], in data set [4] and in data set [5] was more than 65 throughout.
Take `Cc1cc(S(=O)(=O)Nc2nc(Nc3ccc4ncccc4c3)n[nH]2)c(S)cc1Cl`: the IC50 is 7.1 µM in data set [1] and 8.2 µM in data set [2]. Besides, the selectivity ratio in data set [3], in data set [4] and in data set [5] was more than 65 in each case.
As for `Cc1cc(S(=O)(=O)Nc2nc(Nc3ccc(Br)cc3)n[nH]2)c(S)cc1Cl`, the IC50 in data set [1] stood at 3.1 µM; in data set [2], 3.9 µM. Further, the selectivity ratio in data set [3], in data set [4] and in data set [5] was more than 65 in each case.
`Cc1cc(S(=O)(=O)Nc2nc(Nc3cccc4ncccc34)n[nH]2)c(S)cc1Cl`: the figures for the IC50 in data set [1] and in data set [2] were 7.2 µM and 8.6 µM, respectively. For the same compound, the selectivity ratio in data set [3], in data set [4] and in data set [5] was more than 65 in each case.
For the compound `Cc1cc(S(=O)(=O)Nc2nc(Nc3ccnc4cc(Cl)ccc34)n[nH]2)c(S)cc1Cl`, the IC50 came out at 4 µM in data set [1] and 4.8 µM in data set [2]. The selectivity ratio in data set [3], in data set [4] and in data set [5] was more than 65 each time.
Take `Cc1cc2c(cc1Cl)SC(/N=C(/N)NC(=O)c1ccc3ccccc3c1)=NS2(=O)=O`: the IC50 in data set [1] is 2.4 µM; in data set [2], 4 µM. Also, the selectivity ratio in data set [3], in data set [4] and in data set [5] was more than 65 in each case.
